Data from patent publication US20250026721A1, “COMPOUNDS AND METHODS FOR MODULATING RAS-PI3K” (Vividion Therapeutics, Inc., priority 2023, published 2025).

Assays:
[1] = tested on: pAKT(S473) in FaDu cell line; experiment: In vitro Phospho-AKT(S473) HTRF analysis in FaDu cells; type: cell-based; settings: Homo sapiens, 0.5 h; for IC50: FaDu cells, 30 minutes at 37° C.; for Emax: FaDu, read-out: FaDu pAKT Imax % control
Method: Example 5. In Vitro Phosgho-AKT(S473) Analysis
Functional activity of the compounds to inhibit pAKT were assessed in FaDu or H358 cell lines as indicated below.
• Complete Media • FBS, Corning catalog #35-010-CV • Anti-Anti, Gibco catalog #15240-062 • 96 well plate, Corning catalog #3610 • TrypLE, Gibco catalog #12604013 • Phospho-AKT(S473) HTRF kit, Cisbio catalog #64AKSPET
Cells were detached from the tissue culture flask with TrypLE. The cells were pelleted at 500×g for 5 min, TrypLe was removed and then resuspended in the necessary volume of media+1% FBS to give the appropriate cell density (17,500 cells/mL for FaDu; 20,000 cells/mL for H358). 100 μL of cell suspension/well was dispensed into the 96-well plate while keeping the outer wells of the plate free of cells and filled with PBS to prevent evaporation of interior wells. The plate was incubated at 37° C. and allowed to adhere overnight. The cells were treated with a dose response of compound and incubated at 37° C. for 30 minutes. The cells were then processed and pAKT(S473) levels were assessed following the specifications of the Cisbio HTRF kit.

[2] = molecular target: T1, PIK3CA (Homo sapiens, UniProt P42336); experiment: In vitro ELISA target engagement assay for PIK3CA in Jurkat cellular lysate (competition with PIK3CA Biotin Probe); type: binding; settings: 1 hour at rt, then 500 nM PIK3CA Biotin Probe, read-out: Elisa Target Engagement Assay (TE50)
T1 construct: endogenous in cells; host or cells: Jurkat cell lysate
T1 sequence (P42336 whole entry): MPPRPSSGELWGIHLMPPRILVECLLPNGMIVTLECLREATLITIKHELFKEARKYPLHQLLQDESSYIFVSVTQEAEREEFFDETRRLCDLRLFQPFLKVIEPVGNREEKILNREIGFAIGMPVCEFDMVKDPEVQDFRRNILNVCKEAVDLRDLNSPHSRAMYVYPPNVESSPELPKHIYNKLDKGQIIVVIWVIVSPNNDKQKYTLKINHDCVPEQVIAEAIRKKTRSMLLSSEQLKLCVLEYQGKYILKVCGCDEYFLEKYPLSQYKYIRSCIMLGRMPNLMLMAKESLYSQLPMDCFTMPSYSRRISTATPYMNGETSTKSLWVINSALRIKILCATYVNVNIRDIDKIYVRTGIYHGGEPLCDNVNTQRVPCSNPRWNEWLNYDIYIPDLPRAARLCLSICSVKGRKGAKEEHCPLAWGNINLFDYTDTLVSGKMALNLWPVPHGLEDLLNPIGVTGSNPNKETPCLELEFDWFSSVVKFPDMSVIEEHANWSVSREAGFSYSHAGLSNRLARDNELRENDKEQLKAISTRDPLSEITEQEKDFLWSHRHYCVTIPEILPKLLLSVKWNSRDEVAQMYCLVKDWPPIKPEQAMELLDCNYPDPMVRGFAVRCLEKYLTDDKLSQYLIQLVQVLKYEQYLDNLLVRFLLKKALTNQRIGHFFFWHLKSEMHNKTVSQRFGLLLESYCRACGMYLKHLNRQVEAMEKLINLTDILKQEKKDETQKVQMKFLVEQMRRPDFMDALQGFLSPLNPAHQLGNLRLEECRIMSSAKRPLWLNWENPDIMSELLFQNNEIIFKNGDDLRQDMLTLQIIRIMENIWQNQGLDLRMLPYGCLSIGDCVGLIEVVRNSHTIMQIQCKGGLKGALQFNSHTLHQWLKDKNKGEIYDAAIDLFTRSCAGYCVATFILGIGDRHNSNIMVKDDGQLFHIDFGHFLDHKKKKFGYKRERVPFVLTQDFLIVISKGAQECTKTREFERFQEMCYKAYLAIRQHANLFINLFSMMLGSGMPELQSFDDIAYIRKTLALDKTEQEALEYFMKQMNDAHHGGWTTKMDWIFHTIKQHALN
T1 sequence (P27986 whole entry partner): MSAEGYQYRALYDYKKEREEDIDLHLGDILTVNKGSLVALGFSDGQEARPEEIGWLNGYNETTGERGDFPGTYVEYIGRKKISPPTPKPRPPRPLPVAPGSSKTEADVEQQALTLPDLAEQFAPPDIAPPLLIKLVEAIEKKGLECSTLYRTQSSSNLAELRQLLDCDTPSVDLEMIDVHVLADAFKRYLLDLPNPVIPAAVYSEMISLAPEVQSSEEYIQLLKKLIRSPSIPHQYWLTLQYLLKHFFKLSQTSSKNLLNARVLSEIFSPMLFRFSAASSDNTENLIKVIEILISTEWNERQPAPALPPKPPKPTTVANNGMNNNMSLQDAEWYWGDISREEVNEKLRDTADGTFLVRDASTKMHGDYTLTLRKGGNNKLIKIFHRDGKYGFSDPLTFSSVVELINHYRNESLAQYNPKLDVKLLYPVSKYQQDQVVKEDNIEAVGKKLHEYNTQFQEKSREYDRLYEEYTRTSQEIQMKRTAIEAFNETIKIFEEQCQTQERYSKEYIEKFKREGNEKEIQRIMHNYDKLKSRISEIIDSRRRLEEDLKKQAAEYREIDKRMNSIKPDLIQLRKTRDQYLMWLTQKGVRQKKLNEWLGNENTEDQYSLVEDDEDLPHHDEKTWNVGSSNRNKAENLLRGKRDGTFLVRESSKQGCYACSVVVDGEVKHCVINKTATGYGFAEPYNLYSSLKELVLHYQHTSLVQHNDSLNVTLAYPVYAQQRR
How it was run: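 Jurkat lysate from sonicated frozen cells was preincubated 1 h at rt with serially diluted compound up to 200 μM, then labelled 1 h at rt with PIK3CA biotin probe at 500 nM final. Probe-bound PIK3CA was captured on antibody-coated plates and detected with Neutravidin-HRP luminescence; TE50 derived from the dose response.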

Row | Compound | IC50 [1] [nM] | IC50 [2] [nM] | Emax [1] [%]
1 | CC(O)c1ccc(S(=O)(=O)N2CCC(F)(C(=O)N[C@H](C)/C=C/C(=O)N3CC(F)(F)C3)CC2)c(-c2ccccc2Cl)c1 (stereo partly drawn) [Compound 140, 1-((2′-chloro-5-(1-hydroxyethyl)-[1,1′-biphenyl]-2-yl)sulfonyl)-N-((R,E)-5-(3,3-difluoroazetidin-1-yl)-5-oxopent-3-en-2-yl)-4-fluoropiperidine-4-carboxamide] | 427 | 350 | 87.7
2 | C[C@H](/C=C/C(=O)N1CC(F)(F)C1)NC(=O)[C@]1(F)CCN(S(=O)(=O)c2ccc(Br)cc2-c2ccccc2Cl)[C@H](C)C1 [Compound 153, (2R,4S)-1-((5-bromo-2′-chloro-[1,1′-biphenyl]-2-yl)sulfonyl)-N-((R,E)-5-(3,3-difluoroazetidin-1-yl)-5-oxopent-3-en-2-yl)-4-fluoro-2-methylpiperidine-4-carboxamide] | 204 | 183 | 104
3 | C[C@H](/C=C/C(=O)N1CC(F)(F)C1)NC(=O)[C@]1(F)CCN(S(=O)(=O)c2ccc(Br)cc2-c2cccc(Cl)c2)[C@H](C)C1 [Compound 155, (2R,4S)-1-((5-bromo-3′-chloro-[1,1′-biphenyl]-2-yl)sulfonyl)-N-((R,E)-5-(3,3-difluoroazetidin-1-yl)-5-oxopent-3-en-2-yl)-4-fluoro-2-methylpiperidine-4-carboxamide] | 305 | 300 | 106
4 | COCc1ccc(S(=O)(=O)N2CC[C@@](F)(C(=O)N[C@H](C)/C=C/C(=O)N3CC(F)(F)C3)C[C@H]2C)c(-c2ccccc2Cl)c1 [Compound 156, (2R,4S)-1-((2′-chloro-5-(methoxymethyl)-[1,1′-biphenyl]-2-yl)sulfonyl)-N-((R,E)-5-(3,3-difluoroazetidin-1-yl)-5-oxopent-3-en-2-yl)-4-fluoro-2-methylpiperidine-4-carboxamide] | 348 | 520 | 99.2
5 | O=C([C@H]1CN(CC(F)(F)F)C[C@H]1c1ccccc1Cl)N1CCC[C@](F)(C(=O)N[C@@H]2C=CS(=O)(=O)C2)CC1 [Compound 176, (R)-1-((3R,4R)-4-(2-chlorophenyl)-1-(2,2,2-trifluoroethyl)pyrrolidine-3-carbonyl)-N-((R)-1,1-dioxido-2,3-dihydrothiophen-3-yl)-4-fluoroazepane-4-carboxamide] | 679 | 750 | 83.3
6 | CC[C@H](/C=C\S(C)(=O)=O)NC(=O)[C@@]1(F)CCCN(C(=O)[C@H]2CN(CC(F)(F)F)C[C@H]2c2ccccc2Cl)CC1 [Compound 198, (R)-1-((3R,4R)-4-(2-chlorophenyl)-1-(2,2,2-trifluoroethyl)pyrrolidine-3-carbonyl)-4-fluoro-N-((R,Z)-1-(methylsulfonyl)pent-1-en-3-yl)azepane-4-carboxamide] | 472 | 540 | 95.2
7 | C[C@H](/C=C/C(=O)N1CC(F)(F)C1)NC(=O)C1(F)CCN(S(=O)(=O)c2cnc(C(F)(F)F)cc2-c2ccccc2Cl)CC1 [Compound 213, (R,E)-1-((4-(2-chlorophenyl)-6-(trifluoromethyl)pyridin-3-yl)sulfonyl)-N-(5-(3,3-difluoroazetidin-1-yl)-5-oxopent-3-en-2-yl)-4-fluoropiperidine-4-carboxamide] | 291 | 230 | 90.8
8 | C[C@H](/C=C/C(=O)N1CC(F)C1)NC(=O)C1(F)CCN(S(=O)(=O)c2ccc(C(F)(F)F)cc2-c2ccccc2Cl)CC1 [Compound 216, (R,E)-1-((2′-chloro-5-(trifluoromethyl)-[1,1′-biphenyl]-2-yl)sulfonyl)-4-fluoro-N-(5-(3-fluoroazetidin-1-yl)-5-oxopent-3-en-2-yl)piperidine-4-carboxamide] | 688 | 550 | 108

Continued by falling IC50 [1], values first:

Row | IC50 [1] [nM] | IC50 [2] [nM] | Compound | Emax [1] [%]
9 | 1120 | 650 | C[C@H](/C=C\S(C)(=O)=O)NC(=O)C1(F)CCN(S(=O)(=O)c2ccc(N3CCCC3=O)cc2-c2ccccc2Cl)CC1 [Compound 205, (R,Z)-1-((2′-chloro-5-(2-oxopyrrolidin-1-yl)-[1,1′-biphenyl]-2-yl)sulfonyl)-4-fluoro-N-(4-(methylsulfonyl)but-3-en-2-yl)piperidine-4-carboxamide] | –
10 | 834 | 370 | O=C([C@H]1CN(CC(F)(F)F)C[C@H]1c1ccccc1Cl)N1CCC(F)(C(=O)N[C@@H]2C=CS(=O)(=O)C2)CC1 [Compound 164, 1-((3R,4R)-4-(2-chlorophenyl)-1-(2,2,2-trifluoroethyl)pyrrolidine-3-carbonyl)-N—((R)-1,1-dioxido-2,3-dihydrothiophen-3-yl)-4-fluoropiperidine-4-carboxamide] | 103
11 | 718 | 800 | C[C@H](/C=C\S(C)(=O)=O)NC(=O)C1(F)CCN(C(=O)[C@H]2CN(CC(F)F)C[C@H]2c2ccccc2Cl)CC1 [Compound 206, 1-((3R,4R)-4-(2-chlorophenyl)-1-(2,2-difluoroethyl)pyrrolidine-3-carbonyl)-4-fluoro-N-((R,Z)-4-(methylsulfonyl)but-3-en-2-yl)piperidine-4-carboxamide] | 106
12 | 672 | 790 | C[C@H](/C=C/S(C)(=O)=O)NC(=O)[C@@]1(F)CCCN(C(=O)[C@H]2CN(CC(F)(F)F)C[C@H]2c2ccccc2Cl)CC1 [Compound 177, (R)-1-((3R,4R)-4-(2-chlorophenyl)-1-(2,2,2-trifluoroethyl)pyrrolidine-3-carbonyl)-4-fluoro-N-((R,E)-4-(methylsulfonyl)but-3-en-2-yl)azepane-4-carboxamide] | 69.5
13 | 281 | 62 | C[C@H](/C=C\S(C)(=O)=O)NC(=O)[C@@]1(F)CCCN(C(=O)c2ccc(Br)cc2-c2ccccc2Cl)CC1 [Compound 241, (R)-1-(5-bromo-2′-chloro-[1,1′-biphenyl]-2-carbonyl)-4-fluoro-N-((R,Z)-4-(methylsulfonyl)but-3-en-2-yl)azepane-4-carboxamide] | 95.3
14 | 248 | 161 | COCc1ccc(S(=O)(=O)N2CC[C@@](F)(C(=O)N[C@H](C)/C=C\S(C)(=O)=O)C[C@H]2C)c(-c2ccccc2Cl)c1 [Compound 149, (2R,4S)-1-((2′-chloro-5-(methoxymethyl)-[1,1′-biphenyl]-2-yl)sulfonyl)-4-fluoro-2-methyl-N-((R,Z)-4-(methylsulfonyl)but-3-en-2-yl)piperidine-4-carboxamide] | 109
15 | 214 | 110 | C[C@@H](/C=C\S(C)(=O)=O)NC(=O)C1(F)CCN(S(=O)(=O)c2cnc(C(F)(F)F)cc2-c2cccc(F)c2Cl)CC1 [Compound 210, (S,Z)-1-((4-(2-chloro-3-fluorophenyl)-6-(trifluoromethyl)pyridin-3-yl)sulfonyl)-4-fluoro-N-(4-(methylsulfonyl)but-3-en-2-yl)piperidine-4-carboxamide] | –
16 | 138 | 72 | C[C@H](/C=C\S(C)(=O)=O)NC(=O)[C@@]1(F)CCCN(C(=O)c2ccc(C(F)(F)F)cc2-c2ccccc2Cl)CC1 [Compound 242, (R)-1-(2′-chloro-5-(trifluoromethyl)-[1,1′-biphenyl]-2-carbonyl)-4-fluoro-N-((R,Z)-4-(methylsulfonyl)but-3-en-2-yl)azepane-4-carboxamide] | –
17 | 136 | 127 | C[C@H](/C=C\S(C)(=O)=O)NC(=O)[C@@]1(F)CCCN(C(=O)[C@H]2CN(CC(C)(F)F)C[C@H]2c2ccccc2Cl)CC1 [Compound 180, (R)-1-((3R,4R)-4-(2-chlorophenyl)-1-(2,2-difluoropropyl)pyrrolidine-3-carbonyl)-4-fluoro-N-((R,Z)-4-(methylsulfonyl)but-3-en-2-yl)azepane-4-carboxamide] | 96.9
18 | 131 | 270 | C[C@H](/C=C\S(C)(=O)=O)NC(=O)[C@]1(F)CCN(S(=O)(=O)c2ccc(Br)cc2-c2cccc(Cl)c2)[C@H](C)C1 [Compound 145, (2R,4S)-1-((5-bromo-3′-chloro-[1,1′-biphenyl]-2-yl)sulfonyl)-4-fluoro-2-methyl-N-((R,Z)-4-(methylsulfonyl)but-3-en-2-yl)piperidine-4-carboxamide] | 102
19 | 117 | 66.5 | C[C@H](/C=C\S(C)(=O)=O)NC(=O)[C@]1(F)CCN(S(=O)(=O)c2ccc(Br)cc2-c2ccccc2Cl)[C@H](C)C1 [Compound 143, (2R,4S)-1-((5-bromo-2′-chloro-[1,1′-biphenyl]-2-yl)sulfonyl)-4-fluoro-2-methyl-N-((R,Z)-4-(methylsulfonyl)but-3-en-2-yl)piperidine-4-carboxamide] | 111
